Measured values published in patent US7652046B2, “Substituted thienopyrrole carboxylic acid amides, pyrrolothiazole carboxylic acid amides, and related analogs as inhibitors of casein kinase I” (Aventis Pharmaceuticals Inc., priority 2004, dated 2010).

Legend:
[1] = target: T1, Casein Kinase Iε (Homo sapiens, UniProt P49674); assay: Casein Kinase Epsilon 33P-ATP Filter Plate Assay; type: biochemical
T1 construct: made in house
Excerpt: Casein Kinase Epsilon ^33P-ATP Filter Plate Assay for Screening CKIε Inhibitors
Purpose: This assay measures the ability of compounds to inhibit the phosphorylation of the substrate casein by the enzyme casein kinase 1ε using an in vitro ^33P-ATP filtration assay. […] Materials:
Equipment: • Beckman Biomek 2000 Liquid Handling Robot • Beckman Multimek 96 Automated 96 Channel Pipettor • Millipore Vacuum Manifold Basic Kit # MAVM0960R • Titertek Multidrop Liquid Dispenser • Packard TopCount NXT Liquid Scintillation Counter
Enzyme: • Casein Kinase 1ε final concentration 0.58 mg/ml obtained from fermentation and purification processes as are well known to one skilled in the art. The above are stored as 100 μL aliquots at minus 80° C.
Compounds: • Supply compounds for testing as frozen 10 mM compound stock dissolved in 100% DMSO. Assay Conditions:
Final total assay volume per well is equal to 50 μL that one prepares as follows: • 5 μL of diluted compound stock (10, 1, 0.1, 0.01 or 0.001 μM), • 5 μL of dephosphorylated casein final concentration 0.2 μg/μL, • 20 μL of CK1ε final concentration 3 ng/μL, and • 20 μL of γ-^33P-ATP final concentration 0.02 μCi/μL mixed with cold ATP (10 μM final). Methodology: • 1. Prepare 500 mL of fresh assay buffer: 50 mM Tris pH 7.5, 10 mM MgCl2, 2 mM DTT and 1 mM EGTA • 2. Obtain compounds to be evaluated as 10 μL of 10 mM stock dissolved in 100% DMSO. Use a Biomek 2000 liquid handling robot, make serial dilutions to yield 10, 1, 0.1, 0.01 and 0.001 μM final compound dilutions added as 5 μL additions to Falcon U bottom plates. […] A routine screening assay will consist of 32 compounds, which equals 4 assay plates. • 3. Assay plate maps are set up according to the following pattern CK1ePlateMap.xls
• 4. Add 5 μL of compound as indicated, then add 5 μL of dephosphorylated casein (dissolved in distilled H20)(0.2 μg/μL) and 20 μL CK1ε (3 ng/μL) to the appropriate wells. • 5. Finally add 20 μL γ-^33P-ATP (0.02 μCi/μL)/10 μM cold ATP (equals approximately 2×10^6 CPM per well). • 6. Vortes the Falcon U-Bottom assay plate containing the above 50 μL reaction volume and then incubate at room temperature for 2 hours. • 7. At the end of 2 hours, stop the reaction by the addition of 65 μL of ice cold 2 mM cold ATP (made up in assay buffer) to the assay plates using a Beckman Multimek. • 8. At the same time add 25 μL 100% ice cold TCA made up in distilled H20 to a matching number of Millipore MAPH filter plates. • 9. Using a handheld 8-channel pipettor, transfer 100 μL of the reaction mixture from the Falcon U-Bottom Plate to the Millipore MAPH filter plates presoaked with TCA. • 10. Mix the Millipore MAPH filter plates gently and allow to sit at room temperature for at least 30 minutes to precipitate the proteins. • 11. After 30 minutes, place the filter plates on a Millipore vacuum manifold and filter at no more than 8 mm Hg as the MAPH filters tend to “air lock” at higher vacuum settings. • 12. Wash the filter plates sequentially and filter with 2×150 μL 20% TCA, 2×150 μL 10% TCA and 2×150 μL 5% TCA (total of 6 washes per plate/900 μL per well). • 13. Allow the plates to dry overnight at room temperature. The next day add 40 μL Packard Microscint-20 Scintillation Fluid per well using a Titertek Multidrop dispenser; seal the plates and count for 2 minutes/well in a Packard Topcount NXT Scintillation Counter (to provide CPM values/well). Calculation: • 1. Import Counts Per Minute (CPM) data into a proprietary data calculation and archiving database (Activity Base by IDBS version 5.0). • 2. Column 1 for each plate reflects total phosphorylation activity of the enzyme in the absence of any inhibiting compound and thus represents 100%. Column 12 reflects any nonspecific phosphorylation/retained radioactivity activity in the absence of inhibiting compound and enzyme.

[2] = tested on: Mper1-luc Rat-1 fibroblasts (P2C4); assay: Cellular Circadian Assay (Mper1-luc reporter period lengthening); type: cell-based; details: effective concentration that induces a 1 hour lengthening of circadian period
Excerpt: The assay consists of Rat-1 fibroblasts stably expressing a Mper1-luc construct, thus enabling the determination of the rhythmic activation of the Mper1 promoter in living cells by repeatedly estimating luciferase activity by monitoring light-output over several days. The repeated measure format of the assay permits accurate and reproducible assessment of the concentration-dependent effects of CKIε inhibitors on circadian rhythm and provides the nexus for relating CKIε inhibition to circadian period alteration.
Cellular Circadian Assay Experimental Procedures
Stable transfection: Co-transfect Rat-1 fibroblast cultures at 30-50% confluence with vectors containing the Zeocin resistance selectable marker for stable transfection and an mPer-1 promoter-driven luciferase reporter gene. After 24-48 hours, split the cultures onto 96 well plates and maintain in growth media supplemented with 50-100 μg/mL Zeocin (Invitrogen #45-0430) for 10-14 days. Assess Zeocin-resistant stable transfectants for reporter expression by supplementing growth media with 100 μM luciferin (Promega #E1603) and assaying luciferase activity on a TopCount scintillation counter (Packard Model #C384V00). […] Select Mper1-luc Rat-1 fibroblasts clone P2C4 for compound testing. […] After synchronization, rinse cultures with 100 μL EMEM (Cellgro #10-010-CV) for 10 minutes at room temperature. […] Add compounds to be tested for circadian effects to CO2-independent media in 0.3% DMSO (final concentration). […] Estimate in vivo luciferase activity by measuring relative light output on a TopCount scintillation counter (Packard Model #C384V00). Transfer plates from incubator to reader using an ORCA robotic arm (Beckman Instruments) and SAMI-NT automated scheduling software (Version 3.3; SAGIAN/Beckman Instruments). Data Analysis: Use Microsoft Excel and XLfit (Version 2.0.9; IDBS) to import, manipulate and graph data. Perform period analysis either by determining the interval between relative light output minima over several days or by Fourier Transform. […] Analyze the data by fitting a hyperbolic curve to the data expressed as period change (y-axis) versus the concentration of test compound (x-axis) in XLfit and interpolate the EC[…]t+1h from this curve.

T1 sequence (P49674 whole entry): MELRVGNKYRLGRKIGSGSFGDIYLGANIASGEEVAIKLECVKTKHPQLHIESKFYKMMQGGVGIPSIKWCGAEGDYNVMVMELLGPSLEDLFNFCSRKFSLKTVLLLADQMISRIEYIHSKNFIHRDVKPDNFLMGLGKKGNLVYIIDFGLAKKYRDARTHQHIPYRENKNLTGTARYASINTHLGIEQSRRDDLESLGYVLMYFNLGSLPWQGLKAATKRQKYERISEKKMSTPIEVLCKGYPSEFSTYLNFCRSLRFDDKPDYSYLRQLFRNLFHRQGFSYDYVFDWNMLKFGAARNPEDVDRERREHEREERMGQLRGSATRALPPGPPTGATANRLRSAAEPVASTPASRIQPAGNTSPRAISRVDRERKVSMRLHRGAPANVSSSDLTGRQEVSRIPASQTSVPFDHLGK

Row | Structure (SMILES) | Ki [1] [nM] | Cell Assay ECΔτ1h [2] [µM]
1 | NC(=O)c1[nH]c2sccc2c1Sc1ccccc1 [IIb, 4-(phenylsulfanyl)-6H-thieno[2,3-b]pyrrole-5-carboxylic acid amide] | 811 | 0.874
2 | NC(=O)c1[nH]c2sccc2c1Sc1cccc(Br)c1 [IIg, 4-(3-Bromophenyl-sulfanyl)-6H-thieno[2,3-b]pyrrole-5-carboxylic acid amide] | 30.6 | 2.492
3 | Cc1nc2c(Sc3cccc(F)c3)c(C(N)=O)[nH]c2s1 [IIn, 6-(3-Fluorophenyl-sulfanyl)-2-methyl-4H-pyrrolo[3,2-d]thiazole-5-carboxylic acid amide] | 15.9 | 0.998
4 | Cc1nc2c(Sc3cccc(Cl)c3)c(C(N)=O)[nH]c2s1 [IIo, 6-(3-Chlorophenyl-sulfanyl)-2-methyl-4H-pyrrolo[3,2-d]thiazole-5-carboxylic acid amide] | 9.6 | 0.662
5 | NC(=O)c1[nH]c2scnc2c1Sc1ccccc1 [IIs, 6-Phenylsulfanyl-4H-pyrrolo[3,2-d]thiazole-5-carboxylic acid amide] | 47 | 1.155
6 | COc1cccc(Sc2c(C(N)=O)[nH]c3scnc23)c1 [IIt, 6-(3-Methoxyphenyl-sulfanyl)-4H-pyrrolo[3,2-d]thiazole-5-carboxylic acid amide] | 22 | 1.974
7 | NC(=O)c1[nH]c2ccsc2c1Sc1ccccc1N [Id, 6-(2-Aminophenyl-sulfanyl)-4H-thieno[3,2-b]pyrrole-5-carboxylic acid amide] | 110 | >30
